Substitutions are numbered along the chain they refer to. “Also recorded” adds a separate entry of the source. Where two headings read alike, the source gives them in different places.
Legend:
[1] = molecular target: T1, recombinant T. ethanolicus 2° Adh (Thermoanaerobacter pseudethanolicus, UniProt B0KBL1); test: chemical modification (DTNB, DEPC) and reactivation by DTT with metal salts or EDTA; format: biochemical, Thermoanaerobacter ethanolicus 39E; parameters: homotetramer; activity recovery of DTNB-inactivated enzyme with DTT plus zinc: dose or concentration left out as unconfirmed; conditions: for effect on enzyme reactivation by DTT after DTNB inactivation: metal salts 0.01 mM to 1.0 mM, EDTA 0.5 mM to 3.0 mM
T1 sequence (B0KBL1 2-353): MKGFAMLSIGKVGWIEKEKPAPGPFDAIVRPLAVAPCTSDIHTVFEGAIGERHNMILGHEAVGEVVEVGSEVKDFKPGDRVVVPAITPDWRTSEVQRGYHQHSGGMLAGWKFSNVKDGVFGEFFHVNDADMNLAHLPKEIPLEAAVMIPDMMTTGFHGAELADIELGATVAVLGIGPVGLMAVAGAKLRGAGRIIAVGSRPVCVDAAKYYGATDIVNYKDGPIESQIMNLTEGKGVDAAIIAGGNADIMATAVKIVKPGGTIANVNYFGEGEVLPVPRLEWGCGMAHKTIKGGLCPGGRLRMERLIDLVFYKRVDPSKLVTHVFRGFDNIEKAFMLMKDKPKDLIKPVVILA
Protocol: Cysteine residues were reversibly modified using dithionitrobenzoate (DTNB) at 25° C. and 60° C.. […] Histidine residues were chemically modified with diethylpyrocarbonate (DEPC) by incubation with 20 mM or 40 mM DEPC in 50 mM phosphate buffer (pH 6.0) at 25° C. for 1.0 h and the reaction was quenched by addition of 0.5×volume of 0.5 M imidazole (pH 6.5).

[2] = test system: T. brockii 2° Adh; conditions: sulfhydryl modification by p-chloromercuribenzoate; cited from earlier work
[3] = molecular target: T1, recombinant T. ethanolicus 2° Adh; test: standard 2° Adh activity assay (NADP+ reduction coupled to alcohol oxidation at 60° C.), Kmapp and Vmaxapp; conditions: for Vmaxapp / Km: 60° C.; for Km: read-out: Kmapp
Protocol: (§2) The enzyme was incubated at 55° C. for 15 min prior to activity determination unless otherwise indicated. Assays to determine Kmapp and Vmaxapp were conducted at 60° C. with substrate concentrations between 20×Kmapp and 0.2×Kmapp. Kinetic parameters were calculated from nonlinear best fits of the data to the Michaelis-Menten equation using Kinzyme software [26].

[4] = cited from earlier work; for time to complete inactivation: at 70° C.
[5] = substrate: NC(=O)c1ccc[n+]([C@@H]2O[C@H](COP(=O)([O-])OP(=O)(O)OC[C@H]3O[C@@H](n4cnc5c(N)ncnc54)[C@H](OP(=O)(O)O)[C@@H]3O)[C@@H](O)[C@H]2O)c1; test: purified protein, by the assay type; conditions: other: 60° C.
Protocol: as §2

[6] = 2° Adh thermostability: residual activity after timed incubation at the desired temperatures; format: physicochemical
Protocol: (§1) 2° Adh thermostability was measured as the residual activity after timed incubation at the desired temperatures. Thermal inactivation was stopped by incubation for 30 min at 25° C., and samples were prepared for activity assays by preincubation at 55° C. for 15 min. Incubations were performed in […] (cat. #72.733.050, Sarstedt; Newton, N.C.) using […] protein in […]. Activity was determined using the unfractionated samples. The temperature effect on enzyme activity was studied using the substrates propan-2-ol or ethanol at 10×Kmapp concentrations.

[7] = 2° Adh activity: standard assay and temperature effect on enzyme activity (Arrhenius plots); format: biochemical; conditions: for Arrhenius plot discontinuity temperature: enzyme preincubated at 0° C. or 25° C.
Protocol: as §1
To study the effect of enzyme preincubation temperature on enzyme reaction rates, the 2° Adh was incubated at 0° C., 25° C., or 55° C. for 15 min prior to activity determinations in the temperature range 30-90° C. Tris-HCl buffer pH values were adjusted at 25° C. to be pH 8.0 at the temperature they were used (thermal correction factor=-0.031 ΔpH °C.^-1). The statistical significance of the differences between the Arrhenius plot slopes above and below the discontinuity temperatures was determined by covariance analysis.

For [Cl-].[Cl-].[Zn+2] [ZnCl2], the “activity recovery of DTNB-inactivated enzyme with DTT plus zinc” value ([1]; in the presence of ZnCl2) is given as “up to 48%” and the “inactivation and recovery of activity of T. brockii 2° Adh” value [2] is given as “recovered activity only in the presence of ZnCl2”.

In the case of [Cl-].[Cl-].[Mg+2] [MgCl2], the “effect on enzyme reactivation by DTT after DTNB inactivation” value (from here on “effect on enzyme reactivation by DTT”) [1] is reported as “did not affect enzyme reactivation by DTT”.

In the case of O[C@H](CS)[C@H](O)CS (racemic) [DTT, dithiothreitol], the “recovery of initial activity of DTNB-inactivated enzyme” value ([1]; 60° C., DTT, no added metal) is reported as 34%.

For [Cl-].[Cl-].[Co+2] [CoCl2], the “recovered activity of DTNB-inactivated enzyme with DTT plus added metal salt, of the initial activity” value ([1]; 60° C.) was 10%.

In the case of NAD(H), the “NAD(H) dependent activity” value [3] is reported as “no NAD(H) dependent activity was detected”.

With [Cl][Ni][Cl] [NiCl2] the “recovered activity of DTNB-inactivated enzyme with DTT plus added metal salt, of the initial activity” value ([1]; 60° C.) was 15%.

For [Cl-].[Na+] [NaCl], the “effect on enzyme reactivation by DTT” value [1] was “did not affect enzyme reactivation by DTT”.

In the case of [Cl][Mn][Cl] [MnCl2], the “effect on enzyme reactivation by DTT” value [1] is reported as “did not affect enzyme reactivation by DTT”.

For CCOC(=O)OC(=O)OCC [DEPC, diethylpyrocarbonate], the “enzyme inactivation by modification of histidine residues” value ([1]; 20 mM or 40 mM DEPC, pH 6.0, 25° C., 1.0 h) was “completely inactivated; also recorded: complete enzyme inactivation”.

With O=C([O-])CN(CCN(CC(=O)[O-])CC(=O)O)CC(=O)[O-].[Na+].[Na+].[Na+] [EDTA, (ethylenedinitrilo) tetraacetic acid trisodium salt] the “effect on enzyme reactivation by DTT” value ([1]; trisodium salt) was “did not affect enzyme reactivation by DTT; also recorded: inability of EDTA to reduce the rate of reactivation”.

For CCO [ethanol], the Vmaxapp [3] was 10 U mg^-1, the “Kmapp toward the 1° alcohol relative to the 2° alcohol” value ([3]; higher than for propan-2-ol) was about 43 fold and the Km [3] was 47000 µM.

CC(C)O [propan-2-ol] showed a Vmaxapp [3] of 47 U mg^-1 and a Km [3] of 1100 µM.

In the case of O=C(O)c1cc[c]([Hg][Cl])cc1 [p-chloromercuribenzoate], the “inactivation and recovery of activity of T. brockii 2° Adh” value [2] is given as “inactivated”.

For [Ca+2].[Cl-].[Cl-] [CaCl2], the “effect on enzyme reactivation by DTT” value [1] was “did not affect enzyme reactivation by DTT”.

For [Cl][Fe][Cl] [FeCl2], the “effect on enzyme reactivation by DTT” value [1] was “did not affect enzyme reactivation by DTT”.

With O=S(=O)([O-])[O-].[Cd+2] [CdSO4] the “effect on enzyme reactivation by DTT” value [1] was “did not affect enzyme reactivation by DTT”.

B1: C. beijerinckii 2° Adh: mesophilic NADP(H)-dependent secondary-alcohol dehydrogenase of Clostridium beijerinckii (protein, UniProt P25984 1-351, looked up)
NADP-dependent isopropanol …: MKGFAMLGINKLGWIEKERPVAGSYDAIVRPLAVSPCTSDIHTVFEGALGDRKNMILGHEAVGEVVEVGSEVKDFKPGDRVIVPCTTPDWRSLEVQAGFQQHSNGMLAGWKFSNFKDGVFGEYFHVNDADMNLAILPKDMPLENAVMITDMMTTGFHGAELADIQMGSSVVVIGIGAVGLMGIAGAKLRGAGRIIGVGSRPICVEAAKFYGATDILNYKNGHIVDQVMKLTNGKGVDRVIMAGGGSETLSQAVSMVKPGGIISNINYHGSGDALLIPRVEWGCGMAHKTIKGGLCPGGRLRAEMLRDMVVYNRVDLSKLVTHVYHGFDHIEEALLLMKDKPKDLIKAVVIL
In the case of B1, the “time to complete inactivation” value [4] is given as at most 10 min and the “time to complete inactivation” value ([4]; listed as C. beijerinckii) is given as at most 10 min.

B2: recombinant T. ethanolicus 2° Adh (Thermoanaerobacter pseudethanolicus ATCC 33223) (protein)
chain: T1 sequence (B0KBL1 2-353)
For B2, the “activity retained after incubation” value ([4]; incubation for 30 minutes at 91° C.) is listed as 40% and the Km [5] is listed as 11 µM.

B3: T. ethanolicus 39E 2° Adh: thermophilic NADP(H)-dependent secondary-alcohol dehydrogenase of Thermoanaerobacter ethanolicus 39E (SEQ ID NO: 2), adhB gene expressed in E. coli, homotetramer (protein)
chain: T1 sequence (B0KBL1 2-353) with R91W, R313P, R325Q
In the case of B3, the “thermostability and thermophilicity compared with other 2° Adhs” value [6] is reported as “more thermostable and thermophilic”, the half-life ([6]; at 90° C., recombinant enzyme) is reported as 1.7 h and the “time for which detectable activity was retained” value ([6]; incubated at 90° C.) is reported as “retained detectable activity for more than one hour”. The “activity retained after incubation” value ([6]; incubation for more than one hour at 90° C.) was 100%, the “difference between activation energies above and below the discontinuity (Δ), ethanol oxidation relative to propan-2-ol oxidation” value [7] was “at least 3 fold” and the initial activity ([7]; before DTNB modification) was 54±3.0 U mg^-1. For the same molecule, the Arrhenius plot form ([7]; ethanol oxidation, enzyme incubated at 55° C. prior to assay (FIG. 2B)) was “distinct discontinuity”, the “Arrhenius plot discontinuity temperature” value ([7]; ethanol oxidation) was ~ 46 °C and the “temperature range of activity” value ([7]; propan-2-ol oxidation, recombinant enzyme (FIG. 2A)) was “detected below 25 °C and increased to beyond 90 °C”. For the same molecule, the Arrhenius plot form ([7]; propan-2-ol oxidation, enzyme incubated at 55° C. prior to assay) was “linear from 25 °C to 90 °C” and the “Arrhenius plot discontinuity temperature” value ([7]; propan-2-ol oxidation) was ~ 55 °C.
